Experimental findings from patent US8034941B2, “Imidazopyridazinone and imidazopyridone derivatives, the preparation thereof and their use as pharmaceutical compositions” (Boehringer Ingelheim International GmbH, priority 2003, dated 2011) are described below.

For the first series, the target named is T1, DPP-IV (Homo sapiens, UniProt P27487).
T1 construct: an extract of human colon carcinoma cell line Caco-2 is used as the DPP IV source; endogenous in cells; host or cells: Caco-2 (human colon carcinoma), differentiated to induce DPP-IV expression; Nonidet-P40 solubilised extract
T1 sequence (P27487 whole entry): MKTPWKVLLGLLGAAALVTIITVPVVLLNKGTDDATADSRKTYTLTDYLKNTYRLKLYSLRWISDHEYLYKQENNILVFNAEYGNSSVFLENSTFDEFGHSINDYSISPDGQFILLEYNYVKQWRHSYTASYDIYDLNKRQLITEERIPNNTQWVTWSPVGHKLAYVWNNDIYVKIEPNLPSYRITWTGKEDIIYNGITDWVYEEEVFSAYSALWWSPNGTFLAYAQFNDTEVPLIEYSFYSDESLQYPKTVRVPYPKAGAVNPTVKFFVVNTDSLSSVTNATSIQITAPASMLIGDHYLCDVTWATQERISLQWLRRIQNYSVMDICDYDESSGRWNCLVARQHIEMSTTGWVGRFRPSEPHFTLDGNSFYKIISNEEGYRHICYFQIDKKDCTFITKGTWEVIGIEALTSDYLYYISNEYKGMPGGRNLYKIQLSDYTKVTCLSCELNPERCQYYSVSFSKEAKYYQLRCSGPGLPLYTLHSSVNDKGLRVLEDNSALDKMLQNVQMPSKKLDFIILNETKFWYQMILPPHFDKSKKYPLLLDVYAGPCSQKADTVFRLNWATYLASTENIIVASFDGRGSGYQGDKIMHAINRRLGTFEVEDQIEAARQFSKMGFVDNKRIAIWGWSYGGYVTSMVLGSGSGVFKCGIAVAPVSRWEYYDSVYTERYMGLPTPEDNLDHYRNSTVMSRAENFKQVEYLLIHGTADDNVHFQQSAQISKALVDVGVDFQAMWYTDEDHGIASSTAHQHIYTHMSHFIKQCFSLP
The series is described as follows: DPP-IV assay with Caco-2 cell extract as DPP IV source, AFC substrate, fluorescence. To be noted: extract of human colon carcinoma cell line Caco-2; substrate 100 μM; 60 minutes at ambient temperature; read-out: DPP IV inhibition IC50. The series is classed as biochemical. The method, then:
The cell extract was obtained from cells solubilised in a buffer (10 mM Tris HCl, 0.15 M NaCl, 0.04 t.i.u. aprotinin, 0.5% Nonidet-P40, pH 8.0) by centrifuging at 35,000 g for 30 minutes at 4° C. (to remove cell debris).
The DPP-IV assay was carried out as follows:
50 μl substrate solution (AFC; AFC is amido-4-trifluoromethylcoumarin), final concentration 100 μM, were placed in black microtitre plates. 20 μl of assay buffer (final concentrations 50 mM Tris HCl pH 7.8, 50 mM NaCl, 1% DMSO) was pipetted in. The reaction was started by adding 30 μl of solubilised Caco-2 protein (final concentration 0.14 μg of protein per well). The test substances to be investigated were typically added prediluted in 20 μl, and the volume of assay buffer was then reduced accordingly. The reaction was carried out at ambient temperature, incubating for 60 minutes. […] Blank readings (corresponding to 0% activity) were obtained in mixtures without any Caco-2 protein (volume replaced by assay buffer), control values (corresponding to 100% activity) were obtained in mixtures with no substance added.
For orientation: IC50 means the midpoint of a concentration-inhibition curve. With `CC#CCn1c(N2CCCC(N)C2)nc2cnn(Cc3nc4ccccc4c4ccccc34)c(=O)c21` (centres unmarked) [1(1), 2-(3-amino-piperidin-1-yl)-3-(2-butyn-1-yl)-5-[(phenanthridin-6-yl)methyl]-3,5-dihydro-imidazo[4,5-d]pyridazin-4-one], the IC50 stood at 17 nM. As to `CC#CCn1c(N2CCC[C@@H](N)C2)nc2cnn(Cc3nc4ccc5ccccc5c4o3)c(=O)c21` [1(7), 2-((R)-3-amino-piperidin-1-yl)-3-(2-butyn-1-yl)-5-[(naphtho[2,1-d]oxazol-2-yl)methyl]-3,5-dihydro-imidazo[4,5-d]pyridazin-4-one], the half-inhibitory concentration (IC50) is 3 nM. As to `CC#CCn1c(N2CCCC(N)C2)nc2cnn(Cc3cc4ccccc4c4ccccc34)c(=O)c21` (centres unmarked) [1(2), 2-(3-amino-piperidin-1-yl)-3-(2-butyn-1-yl)-5-[(phenanthren-9-yl)methyl]-3,5-dihydro-imidazo[4,5-d]pyridazin-4-one], the half-inhibitory concentration (IC50) was 58 nM. Still for that read-out and setting: the result for `CC#CCn1c(N2CCC[C@@H](N)C2)nc2c(C)nn(CC3=Nc4ccccc4Oc4ccccc43)c(=O)c21` [1(4), 2-((R)-3-amino-piperidin-1-yl)-3-(2-butyn-1-yl)-5-[(dibenzo[b,f][1,4]oxazepin-11-yl)methyl]-7-methyl-3,5-dihydro-imidazo[4,5-d]pyridazin-4-one] reads 9 nM; that for `CC#CCn1c(N2CCC[C@@H](N)C2)nc2cnn(Cc3nc4ccccc4c(=O)[nH]3)c(=O)c21` [1(9), 2-((R)-3-amino-piperidin-1-yl)-3-(2-butyn-1-yl)-5-[(4-oxo-3,4-dihydro-quinazolin-2-yl)methyl]-3,5-dihydro-imidazo[4,5-d]pyridazin-4-one], 3 nM.

Take `CC#CCn1c(N2CCC[C@@H](N)C2)nc2c(C)nn(Cc3nc4ccccc4c4ccccc34)c(=O)c21` [1(3), 2-((R)-3-amino-piperidin-1-yl)-3-(2-butyn-1-yl)-5-[(phenanthridin-6-yl)methyl]-7-methyl-3,5-dihydro-imidazo[4,5-d]pyridazin-4-one x trifluoroacetic acid]: the half-maximal inhibitory concentration (IC50) was 8 nM.

Regarding `CC#CCn1c(N2CCC[C@@H](N)C2)nc2cnn(Cc3nc4c(ccc5ccccc54)o3)c(=O)c21` [1(8), 2-((R)-3-amino-piperidin-1-yl)-3-(2-butyn-1-yl)-5-[(naphtho[1,2-d]oxazol-2-yl)methyl]-3,5-dihydro-imidazo[4,5-d]pyridazin-4-one], the half-inhibitory concentration (IC50) is 7 nM.

In another series the test system is rats. Description: Tolerability after oral administration to rats (behaviour). In kind it is in vivo. The following applies: 10 mg/kg.
For `CC#CCn1c(N2CCCC(N)C2)nc2cnn(CC3=Nc4ccccc4Oc4ccccc43)c(=O)c21` (centres unmarked) [Example 1, 2-(3-amino-piperidin-1-yl)-3-(2-butyn-1-yl)-5-[(dibenzo[b,f][1,4]oxazepin-11-yl)methyl]-3,5-dihydro-imidazo[4,5-d]pyridazin-4-one], the “changes in the animals' behaviour” value is recorded as “no changes in the animals' behaviour could be detected”.
